Data on 1 compound can be found in patent publication US5164189A, “Single layer transdermal drug administration system” (priority 1991, dated 1992).

Molecules are shown by their SMILES. A value given as a limit tells only on which side of the number the result lay.

Data set [1] is described as follows: Intravenous albuterol pharmacokinetics in Rhesus monkeys. To be noted: 0.05 mg/kg.
Protocol: (§1) This solution was injected into the saphenous vein of each monkey at a dose of 1 mL/Kg of bodyweight.
(§2) The serum from each blood sample was separated from other blood components via centrifugation, and then stored at -20° C. until the analysis described in Example 1(f)(1) was performed.
(§3) In separate clean test tubes, 1.5 mL of serum standard (Example 1(d)), serum sample (Examples 1(d) and (e)) and blank (Example 1(d)) was separately buffered with 150 microliters of a 0.42 M phosphate buffer, pH 7.2.
(§4) Each serum sample was then extracted with 4.5 mL of chloroform containing 0.1 M Di (2-ethylhexyl) phosphate (DEHP). The chloroform layer was separated into clean screw cap test tubes and mixed with 375 microliters of a 0.5 M HCl solution.
(§5) The aqueous extracts were then separated by centrifugation and analyzed by the HPLC-Fluorescence procedure described directly below.
(§6) The HPLC system consisted of a Waters Model 590 (Millipore Corporation, Bedford, Mass.) solvent delivery system equipped with a Waters Model 710 B Wisp auto injector, a Zorbax CN column (Dupont, 6 micron particles, 25 cm×4.6 mm internal diameter), Kratos (Kratos Analytical Instruments)Model 970 fluorescence detector (excitation 225 nm and emission 280 nm), and the Ingrad Data Analysis system (G. D. Searle & Co.). […] The mobile phase was pumped at a flow rate of 1.0 mL/minute. The injection volume was 100 microliters. The sensitivity of the method was 2.0 ng/mL.
(§7) The coefficient of variation associated with low (10 ng/mL) and high (80 ng/mL) quality control standard solutions were 4.5 and 3.4 percent, respectively.
The conditions of data set [2]: cited from earlier work.
Another data set in a line: in vivo. The following applies: rhesus monkey, iv, 0.05 mg/kg.

Protocol for in vivo: as §1, §2, §3, §4, §5, §6, §7

What is called Vd is the apparent volume that relates the amount in the body to the concentration in plasma or blood. Broadly, the AUC is the area under the concentration-time curve, a measure of exposure. Higher therefore signals more exposure. In the case of `CC(C)(C)NCC(O)c1ccc(O)c(CO)c1` (centres unmarked) [albuterol], the “Apparent volume of distribution” value in data set [1] (50 mcg/Kg IV, Rhesus monkeys, n=4, mean) is 1.9359 L/kg. For the same compound, the Vd in data set [1] (rhesus monkey, serum, iv) is 1.94 ± 0.0372 L/kg. Besides, the “Apparent volume of distribution in humans” value in data set [2] (human) was 2.2 L/kg. In addition, in data set [2] (oral, extensive first pass metabolism, 'as low as'), the Oral bioavailability is not below 10%. This compound registered an AUC in “in vivo” of 84.2 ng·h/mL.
